Measured values taken from the NIST ThermoML archive (doi:10.1016/j.fluid.2010.04.010).
± gives the expanded uncertainty stated by the source.

Experiment: activity coefficient (dimensionless); of the first substance listed, at infinite dilution; xn = mol fraction of the nth substance listed
Conditions: Liquid, Dilutor technique, x1 = 0

| SMILES | activity coefficient (303.15 K) | activity coefficient (313.15 K) | activity coefficient (323.15 K) | activity coefficient (333.15 K) |
| --- | --- | --- | --- | --- |
| c1ccccc1 [benzene] + CCCCCC[n+]1cccc(C)c1.O=S(=O)([N-]S(=O)(=O)C(F)(F)F)C(F)(F)F | 0.673 ± 0.004 | 0.683 ± 0.004 | 0.691 ± 0.004 | 0.701 ± 0.004 |
| c1ccccc1 [benzene] + CCCCCCn1cc[n+](C)c1.F[B-](F)(F)F | 1.385 ± 0.004 | 1.446 ± 0.004 | 1.562 ± 0.004 | 1.912 ± 0.004 |
| c1ccccc1 [benzene] + CCCCn1cc[n+](C)c1.F[B-](F)(F)F | – | 2.341 ± 0.004 | 2.246 ± 0.004 | 2.218 ± 0.004 |
| C1=CCCCC1 [cyclohexene] + CCCCCC[n+]1cccc(C)c1.O=S(=O)([N-]S(=O)(=O)C(F)(F)F)C(F)(F)F | 3.337 ± 0.004 | 3.205 ± 0.004 | 3.131 ± 0.004 | 3.018 ± 0.004 |
| C1=CCCCC1 [cyclohexene] + CCCCCCn1cc[n+](C)c1.F[B-](F)(F)F | 7.74 ± 0.004 | 7.632 ± 0.004 | 7.496 ± 0.004 | 7.052 ± 0.004 |
